# Reference: patent US20100168038A1, “USE OF COMPOUNDS IN COMBINATION WITH GAMMA-IRRADIATION FOR THE TREATMENT OF CANCER” (priority 2006, published 2010)
# What was measured:
# Type in all cases: cell-based, mouse
# [1] = tested on: TPPII; experiment: Western blotting of TPPII expression in gamma-irradiated EL-4 cells; conditions: wortmannin treated gamma-irradiated EL-4 cells, 25 micro-M NLVS
# From the text: (§1) Cells and Culture Conditions. EL-4 is a Benzpyrene-induced lymphoma cell line derived from the C57BI/6 mouse strain. EL-4.wt and EL-4.TPPII^i are EL-4 cells transfected with the pSUPER vector (Brummelkamp, T R, Bernards, R, Agami, R. A system for stable expression of short interfering RNAs in mammalian cells. Science 2002; 296:550-3), empty versus containing the siRNA directed against TPPII. HeLa cells are human cervical carcinoma cells. YAC-1 is a Moloney Leukemia Virus-induced lymphoma cell line derived from the A/Sn mouse strain. ALC is a T cell lymphoma induced by radiation leukemia virus D-RadLV, derived from the C57Bl/6 mouse strain. […]
# (§2) Antibodies and Antisera. The following molecules were detected by the antibodies specified: Akt by rabbit anti-Akt serum (Cell Signaling Technology, Beverly, Mass.); Phospho-Akt (Ser 473) by 193H2 rabbit anti-phospho-Akt serum (Cell Signaling Technology, Beverly, Mass.); gamma-H2AX by rabbit anti-gamma-H2AX (Cell Signalling Technology, Beverly, Mass.); Mre11 by polyclonal rabbit anti-human Mre11 (Cell Signalling Technology, Beverly, Mass.); p21 by SX118 (R & D Systems, Minneapolis, Minn.); p53 (R & D Systems, Minneapolis, Minn.); Rae-1 by monoclonal Rat anti-mouse Rae-1, 199215 (R &D Systems, Minneapolis, Minn.); XIAP by monoclonal mouse anti-human XIAP, 117320 (R&D Systems, Minneapolis, Minn.). […]
# [2] = tested on: p53; experiment: Western blotting of p53 expression in gamma-irradiated EL-4.TPPIIi cells; conditions: gamma-irradiated EL-4.TPPIIi cells treated with NLVS
# From the text: as §1, §2
# [3] = tested on: p53; experiment: Western blotting of p53-immunoprecipitates from EL-4 cell lysates; conditions: NLVS-treated EL-4.TPPIIi cells
# From the text: Antibodies and Antisera. The following molecules were detected by the antibodies specified: Akt by rabbit anti-Akt serum (Cell Signaling Technology, Beverly, Mass.); Phospho-Akt (Ser 473) by 193H2 rabbit anti-phospho-Akt serum (Cell Signaling Technology, Beverly, Mass.); gamma-H2AX by rabbit anti-gamma-H2AX (Cell Signalling Technology, Beverly, Mass.); Mre11 by polyclonal rabbit anti-human Mre11 (Cell Signalling Technology, Beverly, Mass.); p21 by SX118 (R & D Systems, Minneapolis, Minn.); p53 (R & D Systems, Minneapolis, Minn.); Rae-1 by monoclonal Rat anti-mouse Rae-1, 199215 (R &D Systems, Minneapolis, Minn.); XIAP by monoclonal mouse anti-human XIAP, 117320 (R&D Systems, Minneapolis, Minn.). For detection of TPPII we used chicken anti-TPPII serum (Immunsystem, Uppsala, Sweden). Western blotting was performed by standard techniques. Protein concentration was measured by BCA Protein Assay Reagent (Pierce Chemical Co.). 5 micro-g of protein was loaded per lane for separation by SDS/PAGE unless stated otherwise.
structure (smiles),measurement,setting,value
"CC(C)C[C@@H](/C=C/S(C)(=O)=O)NC(=O)[C@H](CC(C)C)NC(=O)[C@H](CC(C)C)NC(=O)Cc1cc(I)c(O)c([N+](=O)[O-])c1 [NLVS, 4-hydroxy-5-iodo-3-nitrophenylacetyl-Leu-Leu-Leu-vinyl sulphone]",down regulation of TPPII,[1],inhibited down regulation of TPPII
same,p53 expression,[2],increased p53 expression
same,"ATM, 53BP1 and Mre11 in p53-immunoprecipitates",[3],"failed to show ATM, 53BP1 and Mre11"
